The record followed here is ChEMBL document CHEMBL1157515, “Discovery of a novel class of 2-ureido thiophene carboxamide checkpoint kinase inhibitors” (Bioorg Med Chem Lett, 2008).

The nature of series [1]: Lipophilicity, log D of the compound. It counts as physicochemical. The note with it: octanol/water.
The nature of series [2]: Half life in dog. It counts as ADME, organism-based, Canis lupus familiaris. As to conditions: in vivo.
Series [3] is described as follows: Clearance in dog. The note with it: in vivo. Format: ADME, organism-based, Canis lupus familiaris.
Series [4] can be described thus: Oral bioavailability in dog. Format: ADME, organism-based, Canis lupus familiaris. As to conditions: in vivo.
Series [5] can be described thus: Solubility of the compound. It counts as physicochemical.
Series [6] is described as follows: Clearance in mouse. It counts as ADME, organism-based. The note with it: in vivo.
In series [7] the target is Voltage-gated inwardly rectifying potassium channel KCNH2 (Homo sapiens, UniProt Q12809). The experiment in a line: Inhibition of human ERG.
Series [8] can be described thus: Inhibition of CYP. It counts as ADME.
Series [9] in a line: Half life in mouse. It counts as ADME, organism-based. The note with it: in vivo.

Sequence of Voltage-gated inwardly rectifying potassium channel KCNH2 (Q12809 whole entry): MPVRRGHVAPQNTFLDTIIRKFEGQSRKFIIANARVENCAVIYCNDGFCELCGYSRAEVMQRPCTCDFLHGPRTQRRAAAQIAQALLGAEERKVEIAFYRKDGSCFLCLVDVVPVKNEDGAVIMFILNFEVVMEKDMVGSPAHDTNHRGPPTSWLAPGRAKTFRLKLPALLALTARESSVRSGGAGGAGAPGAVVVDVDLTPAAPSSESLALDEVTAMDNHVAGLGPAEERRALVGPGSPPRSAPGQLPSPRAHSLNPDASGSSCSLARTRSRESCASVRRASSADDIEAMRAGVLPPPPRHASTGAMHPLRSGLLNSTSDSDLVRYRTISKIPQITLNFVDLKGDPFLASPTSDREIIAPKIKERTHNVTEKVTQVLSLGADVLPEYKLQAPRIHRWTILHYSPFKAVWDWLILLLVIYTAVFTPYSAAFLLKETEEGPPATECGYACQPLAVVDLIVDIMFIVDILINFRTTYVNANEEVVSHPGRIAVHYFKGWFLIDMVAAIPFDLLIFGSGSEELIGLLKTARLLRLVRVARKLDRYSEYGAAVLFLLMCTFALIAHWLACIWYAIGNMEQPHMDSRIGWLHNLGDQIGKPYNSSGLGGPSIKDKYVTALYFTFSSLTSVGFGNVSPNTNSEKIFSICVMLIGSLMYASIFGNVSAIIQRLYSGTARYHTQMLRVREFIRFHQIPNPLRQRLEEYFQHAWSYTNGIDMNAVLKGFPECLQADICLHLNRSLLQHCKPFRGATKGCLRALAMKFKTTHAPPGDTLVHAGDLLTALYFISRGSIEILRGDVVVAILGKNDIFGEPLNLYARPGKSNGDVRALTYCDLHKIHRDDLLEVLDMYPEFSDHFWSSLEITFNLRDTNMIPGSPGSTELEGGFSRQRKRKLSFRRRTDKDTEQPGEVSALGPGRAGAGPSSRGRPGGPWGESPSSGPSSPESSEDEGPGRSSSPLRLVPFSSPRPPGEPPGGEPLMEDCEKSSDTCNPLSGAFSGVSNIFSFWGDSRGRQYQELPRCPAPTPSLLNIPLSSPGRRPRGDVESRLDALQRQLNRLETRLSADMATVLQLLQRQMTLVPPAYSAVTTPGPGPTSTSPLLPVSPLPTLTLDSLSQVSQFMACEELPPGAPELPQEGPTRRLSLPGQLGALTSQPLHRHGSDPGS

By logD is commonly meant lipophilicity at a set pH, counting ionised and neutral species. High values mean a more lipophilic compound, low ones a more hydrophilic compound. As a reminder, the half-life is the time in which the quantity being followed falls by half. A high value points to slow decline. The clearance is the volume of plasma or blood freed of the substance per unit of time. The low end stands for inefficient removal, the high end for efficient removal. In general, bioavailability refers to the share of a dose that reaches the circulation, judged against a reference dose that is usually intravenous. Low readings indicate poor availability, high ones good availability. The term solubility denotes the concentration that dissolves in the medium under given conditions. The low end stands for a poorly soluble substance, the high end for a readily soluble substance. One may read the IC50 as the midpoint of a concentration-inhibition curve. The molecule `NC(=O)Nc1sc(-c2ccccc2)cc1C(=O)N[C@H]1CCCNC1` showed a log distribution coefficient (logD) in series [1] of 1.28. In addition, the half-life was 312 min in series [2] and 90 min in series [9]. For the same molecule, the values for the clearance in series [3] and in series [6] were 12.8 mL/min/kg and 35.7 mL/min/kg, respectively. Moreover, the bioavailability in series [4] was 78.8%. In [5], the solubility is more than 2000 µM. Besides, the results for the IC50 in [7] and in [8] were more than 31.6 µM and more than 10 µM, respectively.
